From ChEMBL document CHEMBL1157539, “Thousands of chemical starting points for antimalarial lead identification” (Nature, 2010) come the findings set out here.

This assay has as its system Plasmodium falciparum. The assay can be described thus: GSK_TCMDC: Inhibition of Plasmodium falciparum 3D7 in whole erythrocytes, using parasite LDH activity as an index of growth. The assay is classed as functional, organism-based. Particulars: Plasmodium falciparum, 3D7.

Compound `COc1cc(Cc2cnc(N)nc2N)cc(OCCNC(=O)OCc2ccccc2)c1OC` yielded an XC50 of 923 nM.
Next, `Cc1cc(Nc2ccccc2)nc(NCCOc2ccccc2)n1`: 728 nM; `COC(=O)/C=C/c1ccc(CC(C)NCC(O)c2cccc(Cl)c2)cc1` (stereo unspecified): 751 nM.
Next, `COc1ccc2nccc([C@@H](O)CN3CCC(NCC(=O)Nc4cc(F)cc(F)c4)CC3)c2n1`: 912 nM; `O=C(Nc1cccc(CN2CCN(Cc3ccc(O)cc3)CC2)c1)c1cc2ccccc2s1`: 682 nM; `CC(C)C[C@H](NC(=O)OC(C)(C)C)C(=O)Nc1ccc(Cc2ccc(NC(=O)[C@H](CC(C)C)NC(=O)OC(C)(C)C)cc2)cc1`: 761 nM.
Under `Cc1cc(N(C)C)nc(Nc2ccc(NC(=O)C(C)Oc3ccccc3)cc2)n1` (stereo unspecified) stands 952 nM; under `O=S(=O)(Nc1cccc(CCN2CCC(N3CCCCC3)CC2)c1)c1ccccc1C(F)(F)F`, 1150 nM.
`COc1ccc(-c2cn3c(C(=O)Nc4ccccc4Cl)c(-c4ccccc4)c4c3n2CCCC4)cc1` showed an XC50 of 792 nM.
Under `CCNc1cc(C(=O)N[C@@H](Cc2ccccc2)[C@H](O)CNC(C)(C)Cc2cccc(OC)c2)cc(N2CCCC2=O)c1` stands 707 nM; under `O=C(Nc1ccc(C(F)(F)F)cc1)c1ccc(S(=O)(=O)NC2CCN(Cc3ccccc3)C2)cc1` (stereo unspecified), 618 nM.
Next, `NS(=O)(=O)c1cccc(Br)c1`: 888 nM; `CCNC(=O)c1ccc(-n2nc(C)cc2-c2ccccc2)cc1`: 1120 nM.
Under `COc1ccc2nc(-c3ccc(F)cc3)cc([C@@H](O)[C@@H]3C[C@@H]4CCN3CC4C=NO)c2c1` (stereo partly specified) stands 248 nM; under `Cc1cccc2nc(-c3ccc(-c4ccc(NC(=O)Nc5ccsc5)cc4)s3)[nH]c12`, 113 nM.
For `Cc1[nH]c(C)c(-c2ccc(OCc3ccccc3C(F)(F)F)nc2)c(=O)c1Br`, the XC50 was 16.4 nM.
Under `CC(=O)Nc1ccc(OCCCCN(Cc2ccccc2C(F)(F)F)c2ccc(C(F)(F)F)c(C#N)c2)c(Cl)c1` stands 545 nM; under `Cc1ccn2c(C(=O)N3CCN(c4cccc5c4nc(-c4ccoc4)n5Cc4ccccn4)CC3)c(C)nc2c1`, 203 nM; under `O=c1cc(NCCCNCc2cc(C(F)(F)F)ccc2Cl)[nH]c2ccccc12`, 1020 nM.
For `CCN(CC)CCN(Cc1ccc(-c2ccc(C(F)(F)F)cc2)cc1)C(=O)Cn1c(CCc2cccc(F)c2F)cc(=O)c2c1CCCC2`, the XC50 stood at 866 nM.
`CN(C)Cc1cccc(-c2cnc(N)c(-c3nc4cc(S(C)(=O)=O)ccc4[nH]3)c2)c1` showed an XC50 of 887 nM.
Next, `O=C(NCCCCCN1CCC(c2c[nH]c3ccccc23)CC1)Nc1ccc(Cl)cc1Cl`: 716 nM; `CN(C)CCCNc1ncnc2c1[nH]c1ccc(Cl)cc12`: 279 nM; `COc1cc2nc(NC3CCN(Cc4ccccc4)CC3)nc(N)c2cc1OC`: 166 nM.
Consider `CCN(CC)CCOC(=O)c1ccc(NC(=O)c2cc(-c3ccc(C)cc3)nc3ccccc23)cc1`, for which the XC50 came to 779 nM.
Under `CC(Cc1ccc(COc2ccc(CC(CO)NCCc3cccc(Cl)c3)cc2)cc1)NCCc1cccc(Cl)c1` (stereo unspecified) stands 821 nM.
Turning to `CN(C)CCCOc1ccc(CN2CCC(c3c[nH]c4ccc(NCC5CCCCC5)cc34)CC2)cc1`, the XC50 is 678 nM.
In the case of `Cc1cccc2nc(-c3cccc(-c4ccc(CN5CCN(CCO)CC5)cc4)c3)[nH]c12`, the XC50 came to 823 nM.
Under `Clc1ccc(-c2ccc(CNCCCN3CCCC3)cc2)cc1` stands 1060 nM; under `N#Cc1ccc2c(c1)CCN(CCC1CCC(NC(=O)/C=C/c3ccc(Cl)c(Cl)c3)CC1)CC2` (stereo unspecified), 422 nM; under `CCC1N=C(N)N=C(N)N1OCc1ccc(Cl)c(Cl)c1` (stereo unspecified), 3.35 nM.
Next, `CN(CCN)Cc1ccc(-c2ccc(-c3nc4cc(C(F)(F)F)ccc4[nH]3)s2)cc1`: 607 nM; `Cc1cc(C)c(-c2n[nH]c3c2C(c2cccc(Cl)c2)N(Cc2ccco2)C3=O)c(O)c1` (stereo unspecified): 1010 nM; `COc1ccc2ccccc2c1C=NN=c1cc(C)[nH]c2cc(C(F)(F)F)ccc12`: 1040 nM.
Under `Cn1nccc1C(=O)NCCNCc1cccc(-c2ccc(-c3nc4ccccc4[nH]3)s2)c1` stands 303 nM; under `c1ccc(CN2CCC(NCc3ccc(-c4cncc5ccccc45)cc3)CC2)cc1`, 877 nM.
Turning to `Cc1ccc(NC(=O)Nc2ccc(Cn3ncc(N4CCCNCC4)c(Cl)c3=O)cc2)cc1`, the XC50 worked out at 918 nM.
Turning to `COc1cc2nc(N3CCC(CNC(=O)c4ccc(-c5ccc(Cl)cc5)cc4)CC3)nc(N)c2cc1OC`, the XC50 was found to be 147 nM.
Next, `Cc1cccc2nc(-c3ccc(-c4cccc(NC(=O)C(C)CN(C)C)c4)s3)[nH]c12` (stereo unspecified): 724 nM; `COc1ccc(CC(=O)NC(CCN2CCC3(CCc4ccccc43)CC2)c2ccc(Cl)c(Cl)c2)cc1` (stereo unspecified): 525 nM.
Under `CNCc1cccc2nc(-c3ccc(Cc4cc(Cl)ccc4OCC(C)C)o3)[nH]c12` stands 895 nM.
Next, `CC1CN(c2nc(NCCc3ccc(O)cc3)nc(NCc3ccccc3-c3ccc(C(F)(F)F)cc3)n2)CC(C)N1` (stereo unspecified): 529 nM.
For the compound `COc1ccccc1CCNc1ncnc2c1[nH]c1ccc(F)cc12`, the XC50 came out at 837 nM.
In the case of `CN1CCCC(CN2CCN(Cc3cccc(-c4ccc(-c5nc6cc(C(F)(F)F)ccc6[nH]5)cc4)c3)CC2)C1` (stereo unspecified), the XC50 amounted to 145 nM.
Next, `CCN1CCN(c2cc(C)c3cc(NC(=O)c4cccc(Cl)c4)ccc3n2)CC1`: 775 nM.
`O=C(/C=C/c1ccc(Cl)c(Cl)c1)NCCCCCN1CCC(NC(=O)Nc2ccc(F)c(Cl)c2)CC1` displayed an XC50 of 619 nM.
With `CCc1ccccc1N=C1c2c(cccc2[N+](=O)[O-])C(=O)C1C(C)=O` (stereo unspecified), the XC50 was determined as 90.9 nM.
Under `Cc1cc(=O)c2cc(Oc3ccc(OC(F)(F)F)cc3)ccc2[nH]1` stands 990 nM; under `NC1=NC(c2ccccc2)(c2ccccc2)C(=O)N1Cc1ccc(-c2cccnc2)cc1`, 704 nM; under `CN(c1ncc(-c2cccc(CNCc3ccccc3O)c2)cn1)C1CCCCC1`, 822 nM.
Under `Cc1onc(-c2ccccc2Cl)c1C(=O)Nc1cc(Cl)c(Cl)cc1Cl` stands 1180 nM; under `Cc1cccc2nc(-c3ccc(-c4cccc(NC(=O)CCc5c[nH]cn5)c4)s3)[nH]c12`, 838 nM; under `OC(CN1CCN(c2cccc(Cl)c2)CC1)C(c1ccccc1)c1ccccc1` (stereo unspecified), 1150 nM.
Next, `Cc1cccc2nc(-c3ccc(-c4ccc(CN5CCOCC5)cc4)cc3)[nH]c12`: 818 nM.
`CCn1c(=O)c(C(=O)Nc2cc(Cl)c(OC)cc2OC)nc2ccccc21` registered an XC50 of 244 nM.
Next, `COc1nc2c(CCN3CC[C@H](NCc4cc(C#N)c5c(c4)OCCO5)[C@H](O)C3)ccnc2cc1F`: 783 nM.
Under `CC(CO)(CO)NCc1cc2ccc3ccsc3c2c2ccccc12` stands 229 nM; under `Cc1cc(N)nc2ccc(-c3ccc(CN)cc3)cc12`, 621 nM.
Under `CCN(CC)CCOc1ccc(C(O)(C#CC(O)(c2ccc(OCCN(CC)CC)cc2)c2ccc([N+](=O)[O-])cc2)c2ccc([N+](=O)[O-])cc2)cc1` (stereo unspecified) stands 1730 nM; under `COc1cc2nc(N3CCN(C(=O)c4c(Cl)nsc4-c4ccccc4Cl)CC3)nc(N)c2cc1OC`, 534 nM; under `CN(/N=C/c1ccc(Cl)cc1)c1nc(NCCc2ccc(O)cc2)nc(N2CCNCC2)n1`, 1350 nM.
`CC(=NNC(N)=O)C1=C(O)C(c2ccccc2)N(C2CCCCC2)C1=O` (stereo unspecified) gave an XC50 of 33 nM.
Under `c1ccc(CNc2nc(NCCc3c[nH]cn3)nc(N3CCCC4CCCCC43)n2)cc1` (stereo unspecified) stands 834 nM; under `COc1ccc(Nc2ncc3c(-c4cccc(NC(=O)Cc5cccc(O)c5)c4)c[nH]c3n2)cc1OC`, 698 nM.
Under `COc1cc2c(cc1OCCN1CCC(N)CC1)N(C(=O)/C=C/c1ccccc1Cl)CC2` stands 1120 nM; under `O=[N+]([O-])c1cc2c(cc1C=NNc1nc(=Nc3ccccc3)[nH]c(=Nc3ccccc3)[nH]1)OCO2`, 866 nM; under `CN(C)/C(=N/C(=N)NCc1ccc(Cl)c(Cl)c1)NCCCCCCN/C(=N\C(=N)NCc1ccc(Cl)c(Cl)c1)N(C)C`, 304 nM.
Next, `C=CCOc1ccc(-c2c(C)[nH]c(C)c(Br)c2=O)cc1`: 283 nM.
For `Oc1cc2c(cc1CN1CCN(Cc3cccs3)CC1)CCC2`, the XC50 was found to be 839 nM.
Next, `Cc1nc2sccn2c1C(=O)NCCc1ccccc1Cl`: 800 nM; `c1cc(-c2ccc(CNCc3ccc(-c4csnn4)cc3)cc2)cc(-c2nc3ccccc3[nH]2)c1`: 158 nM; `Fc1ccc(-c2csc3ncnc(Cl)c23)cc1`: 331 nM.
Next, `N#Cc1ccc(C(=O)Nc2ccc(-c3cccc(CN4CCCC4)c3)cc2)cc1`: 1000 nM; `NC(=O)COc1c(C2CCN(CCN3CCC(CNC(=O)c4ccc(-c5ccc(C(F)(F)F)cc5)cc4)CC3)CC2)ccc2c1CCCC2`: 969 nM.
The compound `c1ccc2cc3c(Nc4ccc(N5CCCCC5)cc4)ccnc3cc2c1` displayed an XC50 of 739 nM.
Under `COc1ccc(Nc2nc(N)c3cc(OC)c(OC)cc3n2)cc1OC` stands 732 nM; under `CCS(=O)(=O)N1CCN(c2nc(-c3ccccc3)nc(COC)c2Cc2ccccc2F)CC1`, 1450 nM; under `CC(C)CNCc1ccc(-c2ccc(CNC3CCN(Cc4ccccc4)CC3)cc2)cc1`, 558 nM.
The compound `Cc1cc(C)cc(OCC(O)CN(Cc2cc(Cl)cc(Cl)c2)C(=O)Nc2ccc([N+](=O)[O-])cc2)c1` (stereo unspecified) gave an XC50 of 804 nM.
With `O=C(C=Cc1ccc(Cl)c(Cl)c1)NCCCCCN1CCC(CCNS(=O)(=O)c2ccc(Br)cc2)CC1`, the XC50 is 1120 nM.
Turning to `COc1ccc(-c2nc(NC(=O)Cc3ccc4c(c3)OCCO4)sc2C)cc1`, the XC50 came to 245 nM.
Next, `N#Cc1ccc(N[C@@H](CC2CCCCC2)C(=O)NCc2cc(F)c(F)cc2F)c2ccccc12`: 946 nM; `CC(=O)NC1=NC(C)(C)N(OCc2ccc(Cl)c(Cl)c2)C(NC(C)=O)=N1`: 3.2 nM; `CCN(CC)c1ccc(-c2nc3cc(Cl)cnc3[nH]2)cc1`: 1130 nM.
Next, `CC1(C)[C@H]2CC[C@@H](CNc3nc(NCC(=O)Nc4ccc5ccccc5c4)nc(N4CCC(N5CCCC5)CC4)n3)[C@@H]1C2`: 1190 nM; `COc1cccc(CNC(=O)NC2CCN(c3ccnc(Nc4ccc(F)cc4)n3)C2)c1` (stereo unspecified): 805 nM.
